{"source": "patent US20040052824A1", "about": "“Micellar colloidal pharmaceutical composition containing a lipophilic active principle” (priority 2000, published 2004)", "key": {"[1]": {"details": "cited from earlier work"}, "[2]": {"details": "cited from earlier work", "remark": "listed apart in the source"}, "[3]": {"details": "cited from earlier work", "remark": "listed apart in the source"}, "[4]": {"assay": "dissolution trials: solubility of the active principle in the cosurfactant", "type": "physicochemical"}, "[5]": {"details": "octanol/water partition coefficient"}}, "note": "Read-outs that look alike come from different tables or passages of the source."}
{"compound": "OC(c1cc(C(F)(F)F)nc2c(C(F)(F)F)cccc12)C1CCCCN1", "note": "(centres unmarked) [mefloquin]", "values": [{"measurement": "log P", "setting": "[1]; [5]", "value": 3.36}]}
{"compound": "OCCSCCCCCCCCCCSCCO", "note": "[tiadenol]", "values": [{"measurement": "log P", "setting": "[1]; [5]", "value": 4.58}]}
{"compound": "O=C(Nc1cc(Cl)cc(Cl)c1O)c1c(O)c(Cl)cc(Cl)c1Cl", "note": "[oxyclozanide]", "values": [{"measurement": "log P", "setting": "[1]; [5]", "value": 5.35}]}
{"compound": "CC(C)(Oc1ccc(CCNC(=O)c2ccc(Cl)cc2)cc1)C(=O)O", "note": "[bezafibrate]", "values": [{"measurement": "log P", "setting": "[1]; [5]", "value": 3.53}]}
{"compound": "CC(=O)O[C@H]1C(=O)[C@@]2(C)[C@H]([C@H](OC(=O)c3ccccc3)[C@]3(O)C[C@H](OC(=O)[C@H](O)[C@@H](NC(=O)c4ccccc4)c4ccccc4)C(C)=C1C3(C)C)[C@]1(OC(C)=O)CO[C@@H]1C[C@@H]2O", "note": "[paclitaxel]", "values": [{"measurement": "solubility in water", "setting": "[2]", "value": "insoluble in water"}]}
{"compound": "CC1=C(/C=C/C(C)=C/C=C/C(C)=C/CO)C(C)(C)CCC1", "note": "[retinol]", "values": [{"measurement": "log P", "setting": "[1]; [5]", "value": 5.68}]}
{"compound": "O=C(Nc1ccc(Br)cc1)c1cc(Br)ccc1O", "note": "[dibromosalan]", "values": [{"measurement": "log P", "setting": "[1]; [5]", "value": 5.18}]}
{"compound": "O=C1c2ccccc2C(=O)C1c1ccccc1", "note": "[phenyl indanedione]", "values": [{"measurement": "log P", "setting": "[1]; [5]", "value": 2.90}]}
{"compound": "Cc1c2ccncc2c(C)c2c1[nH]c1ccccc12", "note": "[ellipticine]", "values": [{"measurement": "log P", "setting": "[1]; [5]", "value": 4.80}]}
{"compound": "CCCc1nc2c(C)cc(-c3nc4ccccc4n3C)cc2n1Cc1ccc(-c2ccccc2C(=O)O)cc1", "note": "[telmisartan]", "values": [{"measurement": "log P", "setting": "[1]; [5]", "value": 4.8}]}
{"compound": "CC1=CC(=O)c2ccccc2C1=O", "note": "[menadione]", "values": [{"measurement": "log P", "setting": "[1]; [5]", "value": 8}]}
{"compound": "COC(=O)Nc1nc2ccc(C(=O)c3ccccc3)cc2[nH]1", "note": "[mebendazole]", "values": [{"measurement": "log P", "setting": "[1]; [5]", "value": 3.10}]}
{"compound": "Cc1cc(C(C#N)c2ccc(Cl)cc2)c(Cl)cc1NC(=O)c1cc(I)cc(I)c1O", "note": "(centres unmarked) [closantel]", "values": [{"measurement": "log P", "setting": "[1]; [5]", "value": "> 7"}]}
{"compound": "Cc1ccc(C)c(OCCCC(C)(C)C(=O)O)c1", "note": "[gemfibrozil]", "values": [{"measurement": "log P", "setting": "[1]; [5]", "value": 3.90}]}
{"compound": "CN(C/C=C/C#CC(C)(C)C)Cc1cccc2ccccc12", "note": "[terbinafin]", "values": [{"measurement": "log P", "setting": "[1]; [5]", "value": 5.42}]}
{"compound": "CC(C)(Oc1ccc(C2CC2(Cl)Cl)cc1)C(=O)O", "note": "(centres unmarked) [ciprofibrate]", "values": [{"measurement": "log P", "setting": "[1]; [5]", "value": 3.15}]}
{"compound": "CO[C@@H]1[C@@H](O[C@@H]2O[C@H](C)[C@@H](O[C@H]3C[C@@](C)(O)[C@@H](OC(=O)CC(C)C)[C@H](C)O3)[C@H](N(C)C)[C@H]2O)[C@@H](CC=O)C[C@@H](C)[C@@H](O)/C=C/C=C/C[C@@H](C)OC(=O)C[C@H]1OC(C)=O", "note": "[josamycin]", "values": [{"measurement": "log P", "setting": "[1]; [5]", "value": 2.39}]}
{"compound": "CC(C)C(=O)Nc1ccc([N+](=O)[O-])c(C(F)(F)F)c1", "note": "[flutamide]", "values": [{"measurement": "log P", "setting": "[1]; [5]", "value": 3.5}]}
{"compound": "c1ccc2[nH]c(-c3cscn3)nc2c1", "note": "[tiabendazole]", "values": [{"measurement": "log P", "setting": "[1]; [5]", "value": 2.31}]}
{"compound": "ivermectin", "values": [{"measurement": "solubility in water", "setting": "[2]", "value": "practically insoluble in water"}, {"measurement": "partition coefficient chloroform/water: log P", "setting": "[3]; chloroform/water", "value": 3}, {"measurement": "partition coefficient ethyl acetate/water: log P", "setting": "[3]; ethyl acetate/water", "value": 4}]}
{"compound": "CC(=O)O[C@@]12CO[C@@H]1C[C@H](O)[C@@]1(C)C(=O)[C@H](O)C3=C(C)[C@@H](OC(=O)[C@H](O)[C@@H](NC(=O)OC(C)(C)C)c4ccccc4)C[C@@](O)([C@@H](OC(=O)c4ccccc4)[C@H]21)C3(C)C", "note": "[docetaxel]", "values": [{"measurement": "solubility in water", "setting": "[2]", "value": "insoluble in water"}]}
{"compound": "COC(=O)Nc1nc2ccc(Sc3ccccc3)cc2[nH]1", "note": "[fenbendazole]", "values": [{"measurement": "log P", "setting": "[1]; [5]", "value": 4.26}]}
{"compound": "CCCSc1ccc2nc(NC(=O)OC)[nH]c2c1", "note": "[albendazole]", "values": [{"measurement": "log P", "setting": "[1]", "value": 3.22}]}
{"compound": "CCN(CC)C(=O)Nc1ccc(OCC(O)CNC(C)(C)C)c(C(C)=O)c1", "note": "(centres unmarked) [celiprolol]", "values": [{"measurement": "log P", "setting": "[1]; [5]", "value": 2.07}]}
{"compound": "CC[C@H](C)C(=O)O[C@H]1CCC=C2C=C[C@H](C)[C@H](CC[C@@H]3C[C@@H](O)CC(=O)O3)[C@H]21", "note": "[mevastatin]", "values": [{"measurement": "log P", "setting": "[1]; [5]", "value": 3.52}]}
{"compound": "CC(C)(C)c1ccc(C(O)CCCN2CCC(C(O)(c3ccccc3)c3ccccc3)CC2)cc1", "note": "(centres unmarked) [terfenadine]", "values": [{"measurement": "log P", "setting": "[1]; [5]", "value": 3.22}]}
{"compound": "CCOC(=O)C(C)(C)Oc1ccc(Cl)cc1", "note": "[clofibrate]", "values": [{"measurement": "log P", "setting": "[1]; [5]", "value": 3.65}]}
{"compound": "CC(=O)Oc1c(Br)cc(Cl)cc1C(=S)Nc1ccc(Br)cc1", "note": "[brotianide]", "values": [{"measurement": "log P", "setting": "[1]; [5]", "value": 5.30}]}
{"compound": "O=C(Nc1ccc(Oc2ccc(Cl)cc2)c(Cl)c1)c1cc(I)cc(I)c1O", "note": "[rafoxanide]", "values": [{"measurement": "log P", "setting": "[1]; [5]", "value": 8.75}]}
{"compound": "Cc1c([N+](=O)[O-])cc(C(C)(C)C)c(O)c1C(=O)Nc1ccc(Br)cc1C(F)(F)F", "note": "[bromoxanide]", "values": [{"measurement": "log P", "setting": "[1]; [5]", "value": 5.65}]}
{"compound": "CCOC(=O)C1=C(C)NC(C)=C(C(=O)OC)C1c1cccc([N+](=O)[O-])c1", "note": "(centres unmarked) [nitrendipine]", "values": [{"measurement": "log P", "setting": "[1]; [5]", "value": 3.7}]}
{"compound": "CCC(C)n1ncn(-c2ccc(N3CCN(c4ccc(OCC5COC(Cn6cncn6)(c6ccc(Cl)cc6Cl)O5)cc4)CC3)cc2)c1=O", "note": "(centres unmarked) [itraconazole]", "values": [{"measurement": "log P", "setting": "[1]; [5]", "value": 5.68}]}
{"compound": "COC(=O)[C@@H]1[C@H]2C[C@H]3c4[nH]c5ccccc5c4CCN3C[C@@H]2CC[C@@H]1O", "note": "[yohimbine]", "values": [{"measurement": "log P", "setting": "[1]; [5]", "value": 2.73}]}
{"compound": "Cc1cccc(Nc2ccccc2C(=O)O)c1C", "note": "[mefenamic acid]", "values": [{"measurement": "log P", "setting": "[1]; [5]", "value": 5.3}]}
{"compound": "CC1=C(/C=C/C(C)=C/C=C/C(C)=C\\C(=O)O)C(C)(C)CCC1", "note": "[isotretinoin, 13-cis-retinoic acid]", "values": [{"measurement": "solubility in monoethyl ether of diethylene glycol (Transcutol)", "setting": "[4]; cosurfactant Transcutol", "value": 3, "unit": "%"}]}
{"compound": "O=C(Nc1ccc(Br)cc1)c1cc(Br)cc(Br)c1O", "note": "[tribromosalan]", "values": [{"measurement": "log P", "setting": "[1]; [5]", "value": 5.86}]}
{"compound": "Cc1nccn1CC1CCc2c(c3ccccc3n2C)C1=O", "note": "(centres unmarked) [ondansetron]", "values": [{"measurement": "log P", "setting": "[1]; [5]", "value": 2.63}]}
{"compound": "CSc1nc2cc(Cl)c(Oc3cccc(Cl)c3Cl)cc2[nH]1", "note": "[triclabendazole]", "values": [{"measurement": "log P", "setting": "[1]; [5]", "value": 6.45}]}
{"compound": "CC[C@H]1OC(=O)[C@H](C)[C@@H](O[C@H]2C[C@@](C)(OC)[C@@H](O)[C@H](C)O2)[C@H](C)[C@@H](O[C@@H]2O[C@H](C)C[C@H](N(C)C)[C@H]2O)[C@](C)(O)C[C@@H](C)/C(=N\\OCOCCOC)[C@H](C)[C@@H](O)[C@]1(C)O", "note": "[roxithromycin]", "values": [{"measurement": "log P", "setting": "[1]; [5]", "value": "~2.5"}]}
{"compound": "CC(=O)Oc1c(I)cc(I)cc1C(=O)Nc1ccc(Cl)cc1", "note": "[clioxanide]", "values": [{"measurement": "log P", "setting": "[1]; [5]", "value": 5.45}]}
{"compound": "CC[C@H](C)C(=O)O[C@H]1C[C@@H](C)C=C2C=C[C@H](C)[C@H](CC[C@@H]3C[C@@H](O)CC(=O)O3)[C@H]21", "note": "[lovastatin]", "values": [{"measurement": "log P", "setting": "[1]; [5]", "value": 4.04}]}
{"compound": "CC(=O)[C@H]1CC[C@H]2[C@@H]3CCC4=CC(=O)CC[C@]4(C)[C@H]3CC[C@]12C", "note": "[progesterone]", "values": [{"measurement": "solubility in propylene glycol monocaprylate (Capryol)", "setting": "[4]; cosurfactant Capryol", "value": 5, "unit": "%"}]}
